Source: ChEMBL document CHEMBL1201862, “PubChem BioAssay data set” (2004)
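Each compound was tested at five concentrations against cells in 96-well plates for 48 hours. Here, GI50 denotes the concentration required for 50% inhibition of growth.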 Calls of active or inactive are those of the source. Rule as the data show it: active = GI50 up to about 1.1 µM and inactive = higher.

Legend:
Assay in all cases: inhibition of tumour cell growth, NCI panel, 48 h
SW-620 = tested on: SW-620
CAKI-1 = tested on: CAKI-1
HOP-62 = tested on: HOP-62
786-0 = tested on: 786-0
HCT-116 = tested on: HCT-116
Malme-3M = tested on: Malme-3M
ACHN = tested on: ACHN
BT-549 = tested on: BT-549
NCI-H460 = tested on: NCI-H460
DU-145 = tested on: DU-145
A498 = tested on: A498
HL-60 = tested on: HL-60
UACC-257 = tested on: UACC-257
TK-10 = tested on: TK-10
Hs-578T = tested on: Hs-578T
SF-539 = tested on: SF-539
SNB-19 = tested on: SNB-19
HCC 2998 = tested on: HCC 2998
MDA-N = tested on: MDA-N
RXF 393 = tested on: RXF 393

| SMILES | GI50 (SW-620) | GI50 (CAKI-1) | GI50 (HOP-62) | GI50 (786-0) | GI50 (HCT-116) | GI50 (Malme-3M) | GI50 (ACHN) | GI50 (BT-549) | GI50 (NCI-H460) | GI50 (DU-145) | GI50 (A498) | GI50 (HL-60) | GI50 (UACC-257) | GI50 (TK-10) | GI50 (Hs-578T) | GI50 (SF-539) | GI50 (SNB-19) | GI50 (HCC 2998) | GI50 (MDA-N) | GI50 (RXF 393) |
| --- | --- | --- | --- | --- | --- | --- | --- | --- | --- | --- | --- | --- | --- | --- | --- | --- | --- | --- | --- | --- |
| Cn1c2c(c3c(=O)[nH]ncc31)CCCc1ccccc1-2 | 34.3 µM (inactive) | 21.8 µM (inactive) | 18.9 µM (inactive) | 27.8 µM (inactive) | 18.1 µM (inactive) | 22.5 µM (inactive) | 26.8 µM (inactive) | 31.2 µM (inactive) | 23.6 µM (inactive) | 37.9 µM (inactive) | 22.4 µM (inactive) | 0.0817 µM (active) | 34.1 µM (inactive) | 28.7 µM (inactive) | 20.9 µM (inactive) | 35.7 µM (inactive) | 42.7 µM (inactive) | – | – | – |
| COc1cc(C2c3cc4c(cc3[C@@H](Nc3ccc(F)cc3)C3COC(=O)[C@H]23)OCO4)cc(OC)c1O (some centres not stated) | 1.69 µM (inactive) | 0.514 µM (active) | 0.635 µM (active) | 1.47 µM (inactive) | 2.77 µM (inactive) | 2.48 µM (inactive) | 0.476 µM (active) | 2.61 µM (inactive) | 0.0468 µM (active) | 0.368 µM (active) | 1.89 µM (inactive) | – | 6.05 µM (inactive) | 4.88 µM (inactive) | – | 1.86 µM (inactive) | 1.38 µM (inactive) | 3.28 µM (inactive) | 8.93 µM (inactive) | 3.12 µM (inactive) |
| CCOC(=O)c1nc2ccc(C(F)(F)F)cc2nc1Oc1ccc(C(=O)OC)cc1 | > 100 µM (inactive) | > 100 µM (inactive) | 22.5 µM (inactive) | 66.1 µM (inactive) | > 100 µM (inactive) | – | > 100 µM (inactive) | 39.1 µM (inactive) | 54.5 µM (inactive) | 55.7 µM (inactive) | > 100 µM (inactive) | > 100 µM (inactive) | > 100 µM (inactive) | 45.8 µM (inactive) | 33.2 µM (inactive) | 77.8 µM (inactive) | 46.8 µM (inactive) | > 100 µM (inactive) | – | 64.6 µM (inactive) |
| Cc1ccc(C(=O)OCC(C)C)cc1/N=N/N(C)C | > 100 µM (inactive) | 43.8 µM (inactive) | 67.8 µM (inactive) | > 81.5 µM (inactive) | > 61.9 µM (inactive) | > 100 µM (inactive) | 54.8 µM (inactive) | 79.6 µM (inactive) | > 100 µM (inactive) | > 100 µM (inactive) | – | 34.2 µM (inactive) | 26 µM (inactive) | > 100 µM (inactive) | > 100 µM (inactive) | > 86.7 µM (inactive) | > 76.7 µM (inactive) | > 100 µM (inactive) | > 100 µM (inactive) | – |
| CC1SC2(CCCCC2)N(NC(=O)CSc2nc3ccc(Cl)cc3c(=O)n2-c2ccccc2)C1=O (configuration not stated) | 27.9 µM (inactive) | 37.1 µM (inactive) | 18 µM (inactive) | 18.2 µM (inactive) | 14 µM (inactive) | 30.8 µM (inactive) | 29.6 µM (inactive) | 20.2 µM (inactive) | 16.8 µM (inactive) | 27 µM (inactive) | 32.6 µM (inactive) | 23.6 µM (inactive) | 22.8 µM (inactive) | 47.1 µM (inactive) | – | 17.3 µM (inactive) | 24.1 µM (inactive) | 20 µM (inactive) | 18.3 µM (inactive) | 19.3 µM (inactive) |
| NC(=O)/C=C/c1c[nH]c2nccnc12 | 0.891 µM (active) | 3.08 µM (inactive) | 2.94 µM (inactive) | 3.34 µM (inactive) | 1.59 µM (inactive) | 0.726 µM (active) | 2.71 µM (inactive) | 2.2 µM (inactive) | 3.7 µM (inactive) | 3.44 µM (inactive) | 2.58 µM (inactive) | 2.26 µM (inactive) | 4.11 µM (inactive) | 2.43 µM (inactive) | – | 2.24 µM (inactive) | 0.973 µM (active) | 1.14 µM (inactive) | 3.81 µM (inactive) | 1.99 µM (inactive) |
| CN1C(=O)C(O)CC1c1ccccc1F (configuration not stated) | > 100 µM (inactive) | > 100 µM (inactive) | > 100 µM (inactive) | > 100 µM (inactive) | > 100 µM (inactive) | > 100 µM (inactive) | > 100 µM (inactive) | > 100 µM (inactive) | > 100 µM (inactive) | > 100 µM (inactive) | > 100 µM (inactive) | > 100 µM (inactive) | > 100 µM (inactive) | – | – | > 100 µM (inactive) | > 100 µM (inactive) | > 100 µM (inactive) | > 100 µM (inactive) | > 100 µM (inactive) |
| O=C(CNCc1ccccc1)Oc1c(Cl)c(Cl)c(Cl)c(Cl)c1Cl | 32.5 µM (inactive) | 25.3 µM (inactive) | 76.7 µM (inactive) | 93.1 µM (inactive) | > 100 µM (inactive) | 26 µM (inactive) | 23.1 µM (inactive) | 17.3 µM (inactive) | 38.9 µM (inactive) | 15.9 µM (inactive) | – | 23.8 µM (inactive) | 23.1 µM (inactive) | 37.7 µM (inactive) | 17.3 µM (inactive) | 32.3 µM (inactive) | 28.6 µM (inactive) | 22.8 µM (inactive) | – | 74.8 µM (inactive) |
| O=C(ON=c1c2ccccc2ccc2ccccc12)c1cc([N+](=O)[O-])cc([N+](=O)[O-])c1 | > 100 µM (inactive) | – | > 100 µM (inactive) | > 100 µM (inactive) | 87.3 µM (inactive) | 16.8 µM (inactive) | 45.4 µM (inactive) | 54.8 µM (inactive) | > 100 µM (inactive) | 97.3 µM (inactive) | – | 28 µM (inactive) | > 100 µM (inactive) | > 100 µM (inactive) | 76.7 µM (inactive) | > 100 µM (inactive) | > 100 µM (inactive) | 75.2 µM (inactive) | 83.8 µM (inactive) | > 100 µM (inactive) |
| S=c1[nH]nc(Cn2c3ccc(Br)cc3c3nc4ccccc4nc32)n1C1CCCCC1 | 25.3 µM (inactive) | 34.2 µM (inactive) | 18.6 µM (inactive) | 20.7 µM (inactive) | 12.1 µM (inactive) | 29.7 µM (inactive) | 29.4 µM (inactive) | 52.2 µM (inactive) | 20.2 µM (inactive) | 27.8 µM (inactive) | 20.5 µM (inactive) | – | 31.6 µM (inactive) | > 47.8 µM (inactive) | – | 18.6 µM (inactive) | 43.5 µM (inactive) | 16.1 µM (inactive) | 37.5 µM (inactive) | 18.5 µM (inactive) |
| CN1CN(c2ccccc2)C2(CCN(Cc3nc4ccccc4s3)CC2)C1=O | – | 20.1 µM (inactive) | 16.6 µM (inactive) | 17.2 µM (inactive) | 14.8 µM (inactive) | 17.8 µM (inactive) | 19.6 µM (inactive) | 16.1 µM (inactive) | – | 17.9 µM (inactive) | 15.9 µM (inactive) | 11.4 µM (inactive) | 16.6 µM (inactive) | 16.3 µM (inactive) | 18.7 µM (inactive) | 17.8 µM (inactive) | 15 µM (inactive) | – | – | 14.6 µM (inactive) |
